The record followed here is patent publication US12685312B2, “Sulfonamide apyrase inhibitors” (Texas Crop Science, Inc., priority 2022, dated 2026).

For the assay, the system named is apyrase. Nature of the assay: Screen for apyrase inhibitors (Method 1, in vitro phosphate-release absorbance assay). Type of assay: biochemical. The following applies: inhibitor conc at 1 mM stock, 1 hr room temperature, absorbance 630 nm; rounded average of two assay results. In outline: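 Phosphate-release colorimetric assay (Windsor method) in 60 mM Hepes, 3 mM MgCl2, 3 mM CaCl2, 3 mM ATP, pH 6.5, with compound or DMSO control added. Released phosphate developed with ammonium molybdate and ascorbic acid/TCA, then stopped with citrate/acetic acid.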
Regarding `O=C(Nc1ccc(F)cc1)c1ccc(Cl)c(S(=O)(=O)N2CCc3ccccc32)c1` [I-513, 4-chloro-N-(4-fluorophenyl)-3-(indolin-1-ylsulfonyl)benzamide], the “% Inhibition of Apyrase” value came out at 56%.

Turning to `Cc1cnc(C(=O)Nc2cccc(S(=O)(=O)Nc3cccc(Cl)c3)c2)cn1` [I-744, N-(3-(N-(3-chlorophenyl)sulfamoyl)phenyl)-5-methylpyrazine-2-carboxamide], the “% Inhibition of Apyrase” value is reported as 49%.

For the compound `COc1ccc([N+](=O)[O-])cc1NS(=O)(=O)c1cccc(C(=O)Nc2ccc(F)c([N+](=O)[O-])c2)c1` [I-275, N-(4-fluoro-3-nitrophenyl)-3-(N-(2-methoxy-5-nitrophenyl)sulfamoyl)benzamide], the “% Inhibition of Apyrase” value was found to be 46%.

For the compound `NC(=O)c1cccc(NC(=O)c2cccc(S(=O)(=O)N3CCc4ccccc43)c2)c1` [I-456, N-(3-carbamoylphenyl)-3-(indolin-1-ylsulfonyl)benzamide], the “% Inhibition of Apyrase” value turned out to be 60%.

`COc1ccc2c(c1)CCCN2C(=O)c1ccc(S(=O)(=O)Nc2ccccc2F)cc1` [I-883, N-(2-fluorophenyl)-4-(6-methoxy-1,2,3,4-tetrahydroquinoline-1-carbonyl)benzenesulfonamide]: the “% Inhibition of Apyrase” value was found to be 51%.

In the case of `O=C(Nc1ccccc1)c1cccc(NS(=O)(=O)c2cccs2)c1` [I-658, N-phenyl-3-(thiophene-2-sulfonamido)benzamide], the “% Inhibition of Apyrase” value came out at 32%.

`Cc1cccc(NS(=O)(=O)c2cc(C(=O)Nc3cccc(C#N)c3)c(Cl)cc2Cl)c1` [I-560, 2,4-dichloro-N-(3-cyanophenyl)-5-(N-(m-tolyl)sulfamoyl)benzamide]: the “% Inhibition of Apyrase” value is 52%.

For the compound `O=C(c1cccc(S(=O)(=O)Nc2ccc(Br)cc2)c1)N1CCc2sccc2C1` [I-262, N-(4-bromophenyl)-3-(4,5,6,7-tetrahydrothieno[3,2-c]pyridine-5-carbonyl)benzenesulfonamide], the “% Inhibition of Apyrase” value turned out to be 59%.

Turning to `Cc1ccccc1NS(=O)(=O)c1ccc(C(=O)Nc2cccc([N+](=O)[O-])c2C)cc1` [I-404, N-(2-methyl-3-nitrophenyl)-4-(N-(o-tolyl)sulfamoyl)benzamide], the “% Inhibition of Apyrase” value is 38%.

For the compound `COc1cccc(C(=O)Nc2ccc(S(=O)(=O)Nc3ccccc3OC)cc2)c1` [I-973, 3-methoxy-N-(4-(N-(2-methoxyphenyl)sulfamoyl)phenyl)benzamide], the “% Inhibition of Apyrase” value is 63%.

For the compound `COc1ccc(NS(=O)(=O)c2cccc(NC(=O)c3n[nH]c(=O)c4ccccc34)c2)cc1` [I-736, N-(3-(N-(4-methoxyphenyl)sulfamoyl)phenyl)-4-oxo-3,4-dihydrophthalazine-1-carboxamide], the “% Inhibition of Apyrase” value was 53%.

Turning to `Cc1cc(S(=O)(=O)Nc2ccc(C(=O)N3c4ccccc4CC3C)cc2)ccc1F` (stereo not drawn) [I-909, 4-fluoro-3-methyl-N-(4-(2-methylindoline-1-carbonyl)phenyl)benzenesulfonamide], the “% Inhibition of Apyrase” value turned out to be 60%.

For `Cc1ccc(NC(=O)c2cccc(S(=O)(=O)Nc3ccc(Br)cc3)c2)cc1S(=O)(=O)N1CCOCC1` [I-273, 3-(N-(4-bromophenyl)sulfamoyl)-N-(4-methyl-3-(morpholinosulfonyl)phenyl)benzamide], the “% Inhibition of Apyrase” value is listed as 52%.

As for `COc1ccc(S(=O)(=O)N2CCc3ccccc32)cc1C(=O)Nc1ccc(OC(F)(F)F)cc1` [I-597, 5-(indolin-1-ylsulfonyl)-2-methoxy-N-(4-(trifluoromethoxy)phenyl)benzamide], the “% Inhibition of Apyrase” value is on record as 35%.

For the compound `COc1ccc(NS(=O)(=O)c2cccc(NC(=O)c3ccc(Cl)nc3)c2)cc1` [I-714, 6-chloro-N-(3-(N-(4-methoxyphenyl)sulfamoyl)phenyl) nicotinamide], the “% Inhibition of Apyrase” value stood at 58%.

With `COc1ccccc1NS(=O)(=O)c1cccc(NC(=O)c2c[nH]c3ccccc23)c1` [I-707, N-(3-(N-(2-methoxyphenyl)sulfamoyl)phenyl)-1H-indole-3-carboxamide], the “% Inhibition of Apyrase” value worked out at 62%.

`Cc1ccc(C)c(S(=O)(=O)Nc2ccc(C(=O)Nc3ccc4c(c3)OCO4)cc2)c1` [I-929, N-(benzo[d][1,3]dioxol-5-yl)-4-((2,5-dimethylphenyl)sulfonamido)benzamide]: the “% Inhibition of Apyrase” value was determined as 55%.

With `Cc1ccc(F)c(NC(=O)c2cccc(S(=O)(=O)N3c4ccccc4CC3C)c2)c1` (stereo not drawn) [I-497, N-(2-fluoro-5-methylphenyl)-3-((2-methylindolin-1-yl)sulfonyl)benzamide], the “% Inhibition of Apyrase” value is listed as 57%.

As for `COc1ccc(S(=O)(=O)N2CCc3ccccc32)cc1C(=O)Nc1cccc(Br)c1` [I-525, N-(3-bromophenyl)-5-(indolin-1-ylsulfonyl)-2-methoxybenzamide], the “% Inhibition of Apyrase” value was 55%.

Take `CC1CCc2c(sc(NC(=O)c3cccc(S(=O)(=O)Nc4ccccc4Cl)c3)c2C#N)C1` (stereo not drawn) [I-437, 3-(N-(2-chlorophenyl)sulfamoyl)-N-(3-cyano-6-methyl-4,5,6,7-tetrahydrobenzo[b]thiophen-2-yl)benzamide]: the “% Inhibition of Apyrase” value was found to be 64%.

With `CC(=O)Nc1ccc(NC(=O)c2cccc(S(=O)(=O)Nc3ccc(Br)cc3)c2)cc1` [I-47, N-(4-acetamidophenyl)-3-(N-(4-bromophenyl)sulfamoyl)benzamide], the “% Inhibition of Apyrase” value came to 12%.

`CCc1ccccc1NC(=O)c1cccc(S(=O)(=O)N2c3ccccc3CC2C)c1` (stereo not drawn) [I-445, N-(2-ethylphenyl)-3-((2-methylindolin-1-yl)sulfonyl)benzamide]: the “% Inhibition of Apyrase” value came to 61%.

In the case of `O=C(Nc1cccc(S(=O)(=O)Nc2ccc(Br)cc2)c1)c1ccsc1` [I-207, N-(3-(N-(4-bromophenyl)sulfamoyl)phenyl)thiophene-3-carboxamide], the “% Inhibition of Apyrase” value amounted to 74%.

Regarding `Cc1cccc(NC(=O)c2cccc(S(=O)(=O)N3CCc4ccccc43)c2)c1` [I-214, 3-(indolin-1-ylsulfonyl)-N-(m-tolyl)benzamide], the “% Inhibition of Apyrase” value came out at 71%.

For the compound `Cc1cccc(NS(=O)(=O)c2ccc(C(=O)Nc3cccc(C#N)c3)cc2)c1C` [I-855, N-(3-cyanophenyl)-4-(N-(2,3-dimethylphenyl)sulfamoyl)benzamide], the “% Inhibition of Apyrase” value stood at 82%.

In the case of `COc1ccc2c(c1)CCCN2C(=O)c1ccc(S(=O)(=O)Nc2ccc(F)cc2)cc1` [I-858, N-(4-fluorophenyl)-4-(6-methoxy-1,2,3,4-tetrahydroquinoline-1-carbonyl)benzenesulfonamide], the “% Inhibition of Apyrase” value stood at 76%.

With `COc1ccccc1NC(=O)c1ccc(NS(=O)(=O)c2ccc(Cl)c(C(F)(F)F)c2)cc1` [I-915, 4-((4-chloro-3-(trifluoromethyl)phenyl)sulfonamido)-N-(2-methoxyphenyl)benzamide], the “% Inhibition of Apyrase” value is given as 59%.

For `O=C(Nc1ccc(Cl)c([N+](=O)[O-])c1)c1cccc(S(=O)(=O)Nc2cc(C(F)(F)F)ccc2Cl)c1` [I-241, N-(4-chloro-3-nitrophenyl)-3-(N-(2-chloro-5-(trifluoromethyl)phenyl)sulfamoyl)benzamide], the “% Inhibition of Apyrase” value was found to be 71%.

With `O=C(Nc1cccc(C(F)(F)F)c1)c1cccc(NS(=O)(=O)c2ccc(Cl)s2)c1` [I-634, 3-((5-chlorothiophene)-2-sulfonamido)-N-(3-(trifluoromethyl)phenyl)benzamide], the “% Inhibition of Apyrase” value came to 59%.

As for `Cc1ccc(S(=O)(=O)N(C)c2ccc(C(=O)Nc3ccc4c(c3)OCCO4)cc2)cc1` [I-938, N-(2,3-dihydrobenzo[b][1,4]dioxin-6-yl)-4-((N,4-dimethylphenyl)sulfonamido)benzamide], the “% Inhibition of Apyrase” value worked out at 51%.

As to `Cc1ccc(NC(=O)c2ccc(NS(=O)(=O)c3ccc(F)c(F)c3)cc2)cc1` [I-899, 4-((3,4-difluorophenyl)sulfonamido)-N-(p-tolyl)benzamide], the “% Inhibition of Apyrase” value is on record as 65%.

Turning to `O=C(Nc1cccc(F)c1)c1cccc(S(=O)(=O)Nc2ccc3c(c2)OCO3)c1` [I-265, 3-(N-(benzo[d][1,3]dioxol-5-yl)sulfamoyl)-N-(3-fluorophenyl)benzamide], the “% Inhibition of Apyrase” value worked out at 58%.

For `COc1ccc(NC(=O)c2cccc(S(=O)(=O)Nc3ccc4c(c3)OCO4)c2)c(OC)c1` [I-590, 3-(N-(benzo[d][1,3]dioxol-5-yl)sulfamoyl)-N-(2,4-dimethoxyphenyl)benzamide], the “% Inhibition of Apyrase” value was determined as 42%.

As to `O=C(c1cc(S(=O)(=O)Nc2cccc(C(F)(F)F)c2)ccc1Cl)N1CCCc2ccccc21` [I-474, 4-chloro-3-(1,2,3,4-tetrahydroquinoline-1-carbonyl)-N-(3-(trifluoromethyl)phenyl)benzenesulfonamide], the “% Inhibition of Apyrase” value came to 59%.

As for `Cc1ccccc1NS(=O)(=O)c1ccc(C(=O)Nc2ccccc2C(=O)NC2CC2)cc1` [I-893, N-cyclopropyl-2-(4-(N-(o-tolyl)sulfamoyl)benzamido)benzamide], the “% Inhibition of Apyrase” value is recorded as 20%.

With `Cc1ccc(S(=O)(=O)N(C)c2ccc(C(=O)Nc3cc([N+](=O)[O-])ccc3C)cc2)cc1` [I-925, 4-((N,4-dimethylphenyl)sulfonamido)-N-(2-methyl-5-nitrophenyl)benzamide], the “% Inhibition of Apyrase” value was 56%.

With `Cc1ccc(C(=O)Nc2cccc(C(=O)O)c2)cc1S(=O)(=O)Nc1ccc(Br)cc1` [I-35, 3-(3-(N-(4-bromophenyl)sulfamoyl)-4-methylbenzamido)benzoic acid], the “% Inhibition of Apyrase” value is 17%.

For the compound `O=C(Nc1ccc2c(c1)OCCO2)c1ccc(Cl)c(S(=O)(=O)N2CCc3ccccc32)c1` [I-524, 4-chloro-N-(2,3-dihydrobenzo[b][1,4]dioxin-6-yl)-3-(indolin-1-ylsulfonyl)benzamide], the “% Inhibition of Apyrase” value was found to be 55%.

As to `CCNC(=O)c1cccc(NC(=O)c2cccc(S(=O)(=O)Nc3cccc(C(F)(F)F)c3)c2)c1` [I-594, N-ethyl-3-(3-(N-(3-(trifluoromethyl)phenyl)sulfamoyl)benzamido) benzamide], the “% Inhibition of Apyrase” value is given as 36%.
